# Reference: US11168054B2, “Biaromatic compounds, which are vitamin D analogs” (DSM IP ASSETS B.V., priority 2015, dated 2021)
# Target: T1, ligand-binding domain of the human VDR linked to the DNA-binding domain of the yeast transcription factor GAL4 (Homo sapiens, UniProt P11473)
# T1 construct: expressed in transfected cells; host or cells: HEK293
# T1 sequence (P11473 127-423 limits assumed): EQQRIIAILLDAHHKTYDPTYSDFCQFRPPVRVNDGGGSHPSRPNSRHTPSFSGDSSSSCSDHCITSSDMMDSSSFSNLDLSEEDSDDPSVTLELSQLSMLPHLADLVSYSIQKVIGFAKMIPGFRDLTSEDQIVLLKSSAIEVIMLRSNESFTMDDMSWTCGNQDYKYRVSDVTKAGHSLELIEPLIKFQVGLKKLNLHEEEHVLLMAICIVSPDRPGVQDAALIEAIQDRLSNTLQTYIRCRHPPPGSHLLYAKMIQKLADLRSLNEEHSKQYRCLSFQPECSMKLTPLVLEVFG
# Test: Human vitamin D receptor (VDR) agonist activity, cell based GAL4 hybrid luciferase transactivation assay
# Conditions: HEK293 cells transiently transfected with VDR-LBD/GAL4 hybrid receptor and pFR-Luc reporter; 16 h incubation; luciferase luminescence; read-out: Effective concentrations of half maximal activation (EC50)
# Description: By way of example, the human vitamin D receptor (VDR) agonist activity of the claimed compounds can be tested using a cell based transactivation assay in an eukaryotic cell line. After a co-transfection, using a reporter plasmid construct and a hybrid receptor construct containing the ligand-binding domain of the human VDR linked to the DNA-binding domain of the yeast transcription factor GAL4, the cultured cells were stimulated by the VDR agonists. The hybrid VDR-GAL4 receptor binds the VDR agonists and transactivates luciferase reporter expression through the GAL4-response elements in the promoter of the luciferase gene (reporter construct). The VDR agonist binding and transactivation is determined by measuring the luciferase luminescence activity. The effective concentration of half maximal activation (EC50) was determined for the VDR agonists by means of dose-response experiments. The details of the protocol method of this test according to the invention are described in the example section.
# Testing of the Human Vitamin D Receptor (VDR) Agonist Activity of the Compounds
# The transient transfections were performed in HEK293 cells (ATCC, Molsheim, France) grown in minimum essential medium (Eagle) with Earle's balanced salt solution without L-glutamine and supplemented with 10% fetal bovine serum (Sigma-Aldrich Corp., St. Gallen, Switzerland), 2 mM glutamax (Life Technologies AG, Basel, Switzerland), 0.1 mM non-essential amino acids (Life Technologies), and 1 mM sodium pyruvate (Life Technologies) at 37° C. in 5% CO2. […] The cells were transiently transfected before stimulation the next day at >80% confluence by polyethylene-imine-based transfection. Compound stocks were prepared in DMSO, pre-diluted in PBS (0.45% final DMSO concentration), and added in the respective dilution 5 h after the addition of the transfection mixture onto the cells. The cells were again incubated for additional 16 h before firefly and renilla luciferases activity was measured sequentially in the same cell extract using buffers according to established protocols (Promega AG, Dübendorf, Switzerland). Transfection efficiency was controlled to the pRL-TK renilla luciferase reporter expression.
row,Compound,EC50 [nM]
1,"CCCC1C(O)c2ccc(CCc3cccc(/C(=C/C=C/C(O)(CC)CC)CC)c3)cc2C1O (stereo not shown) [Comp1, reference compound]",210
2,"CC/C(=C\C=C\C(O)(CC)CC)c1cccc(CCc2ccc3c(c2)C(O)C(C)(C)C3O)c1 (stereo not shown) [I-a, (5-(3-((3E,5E)-7-ethyl-7-hydroxynona-3,5-dien-3-yl)phenethyl)-2,2-dimethyl-2,3-dihydro-1H-indene-1,3-diol)]",14
3,"CC/C(=C\C=C\C(O)(CC)CC)c1cccc(CCc2ccc3c(c2)C(O)C(C)C3O)c1 (stereo not shown) [I-b, 5-(3-((3E,5E)-7-ethyl-7-hydroxynona-3,5-dien-3-yl)phenethyl)-2-methyl-2,3-dihydro-1H-indene-1,3-diol]",34
4,"CC/C(=C\C=C\C(O)(CC)CC)c1cccc(CCc2ccc3c(c2)C(O)CC3O)c1 (stereo not shown) [I-c, 5-(3-((3E,5E)-7-ethyl-7-hydroxynona-3,5-dien-3-yl)phenethyl)-2,3-dihydro-M-indene-1,3-diol]",49
